Data taken from patent US12060408B2, “Screening assays, modulators and modulation of activation of Receptor for Advanced Glycation End-products (RAGE)” (Monash University, priority 2017, dated 2024).

Legend:
IQGAP-1 [1] = target: T1, IQGAP-1 (Cricetulus griseus, UniProt A0A8C2MPD4); test: Pull-down on column coated with S391A-RAGE362-404, proteomic analysis; type: binding; settings: lysate of CHO cells stably transfected with Hs-AT1R; NiNTA column; FIG. 11C
T1 construct: 5×10^7 CHO cells stably transfected with Hs-AT1R were lysed using RIPA buffer; endogenous in cells; host or cells: lysate of CHO cells stably transfected with Hs-AT1R
T1 sequence (A0A8C2MPD4 1-1657): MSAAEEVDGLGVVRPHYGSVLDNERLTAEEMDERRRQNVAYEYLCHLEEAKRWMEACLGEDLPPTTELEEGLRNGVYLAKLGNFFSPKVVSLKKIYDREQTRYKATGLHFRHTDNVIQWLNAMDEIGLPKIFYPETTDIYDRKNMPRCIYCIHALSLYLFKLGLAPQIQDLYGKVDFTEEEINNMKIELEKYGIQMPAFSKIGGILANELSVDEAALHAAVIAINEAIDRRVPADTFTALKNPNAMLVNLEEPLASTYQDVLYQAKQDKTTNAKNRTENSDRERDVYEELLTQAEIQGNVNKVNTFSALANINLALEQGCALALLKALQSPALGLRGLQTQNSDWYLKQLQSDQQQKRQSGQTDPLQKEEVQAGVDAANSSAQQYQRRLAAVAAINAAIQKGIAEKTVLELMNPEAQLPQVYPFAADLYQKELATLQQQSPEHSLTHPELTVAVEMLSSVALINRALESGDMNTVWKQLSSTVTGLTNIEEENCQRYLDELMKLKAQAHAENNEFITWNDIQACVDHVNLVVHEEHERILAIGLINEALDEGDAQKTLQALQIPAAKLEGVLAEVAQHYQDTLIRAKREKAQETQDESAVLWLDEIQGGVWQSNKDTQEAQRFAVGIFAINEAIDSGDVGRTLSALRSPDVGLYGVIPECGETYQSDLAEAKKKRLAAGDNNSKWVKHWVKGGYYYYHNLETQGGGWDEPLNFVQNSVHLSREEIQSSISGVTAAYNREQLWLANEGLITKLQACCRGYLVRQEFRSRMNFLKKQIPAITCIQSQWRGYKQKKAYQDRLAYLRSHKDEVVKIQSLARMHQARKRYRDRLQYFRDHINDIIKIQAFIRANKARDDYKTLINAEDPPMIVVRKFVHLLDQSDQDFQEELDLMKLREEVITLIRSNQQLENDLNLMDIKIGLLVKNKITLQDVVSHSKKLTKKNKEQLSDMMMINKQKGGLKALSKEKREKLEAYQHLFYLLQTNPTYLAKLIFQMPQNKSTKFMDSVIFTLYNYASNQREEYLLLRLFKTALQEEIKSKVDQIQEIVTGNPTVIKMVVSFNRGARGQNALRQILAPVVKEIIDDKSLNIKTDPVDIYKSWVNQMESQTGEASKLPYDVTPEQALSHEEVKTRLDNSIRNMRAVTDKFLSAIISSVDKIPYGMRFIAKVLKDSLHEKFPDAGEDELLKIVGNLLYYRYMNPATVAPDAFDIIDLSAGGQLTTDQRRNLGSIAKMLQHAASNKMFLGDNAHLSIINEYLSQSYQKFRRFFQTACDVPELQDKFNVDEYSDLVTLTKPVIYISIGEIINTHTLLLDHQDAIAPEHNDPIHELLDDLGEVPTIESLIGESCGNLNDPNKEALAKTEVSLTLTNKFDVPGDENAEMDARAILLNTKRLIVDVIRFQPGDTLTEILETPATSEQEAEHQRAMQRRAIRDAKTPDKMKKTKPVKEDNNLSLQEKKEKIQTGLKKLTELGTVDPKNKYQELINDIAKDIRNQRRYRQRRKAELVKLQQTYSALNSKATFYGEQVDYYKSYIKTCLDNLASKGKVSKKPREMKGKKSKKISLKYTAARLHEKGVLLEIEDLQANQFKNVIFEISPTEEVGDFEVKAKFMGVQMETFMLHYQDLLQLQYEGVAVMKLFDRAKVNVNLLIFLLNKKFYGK
Description: The TAT-Cherry-S391A-RAGE362-404 peptide and TAT-mCherry control peptide were bound to a gravity flow NiNTA column, and equilibrated using lysis buffer (50 mM Tris pH 7.5, 300 mM NaCl, 5 mM βB-mercaptoethanol, 10 mM imidazole. 5×10^7 CHO cells stably transfected with Hs-AT1R were lysed using RIPA buffer (1×PBS supplemented with 1% NP-40, 0.5% Na-deoxycholate with protease and phosphatase inhibitors), diluted to 50 ml in lysis buffer and passed over the Ni-NTA column twice by gravity flow. The 1 ml column was washed extensively (200 ml wash buffer-50 mM Tris pH 7.4, 300 mM NaCl, 5 mM β-mercaptoethanol, 20 mM imidazole). After washing, 2 ml of elution buffer (50 mM Tris pH 7.4, 300 mM NaCl, 5 mM β-mercaptoethanol, 250 mM imidazole) was applied to the column, and used to elute proteins that had bound to either the A peptide or TAT-mCherry control peptide. 1 ml of sample was delivered for proteomic analysis by Mass Spectroscopy. Venny 2.1.0 was used to generate lists of the proteins differentially bound to the two proteins.

IQGAP-1 [2] = target: T1, IQGAP-1; test: Pull down from cytosolic components on a column coated with S391A-RAGE362-404; type: binding; settings: column coated with the peptide
Excerpt: FIG. 11C. Pull down of a protein identified as IQGAP-1 from other cytosolic components using a column coated with the mutant RAGE cytosolic tail (S391A-RAGE362-404), as well as IQGAP-1 associated proteins, ezrin/radixin/moesin and the GPCR olfactory receptor 2T2.

PMAEC = test: Static adhesion assay (labelled THP-1 cells on PMAEC monolayer); type: cell-based, mouse; settings: PMAEC from C57bl6 mice, 1 μM
Description: Functional responsiveness to Ang II was determined in PMAEC using a static adhesion assay, in which PMAEC were seeded at 50,000 cells per well into six-well plates and allowed to grow to 70% confluency before treatment with 1 μM Ang II for 24 hours. Human THP-1 cells, which mimic monocytes and macrophages in the vasculature, were stained using CellVue Burgundy Fluorescent Cell labelling Kit (LICOR) as per manufacturer's instructions before seeding them onto the endothelial cell monolayers at 3×10^5 viable cells per well and incubated for 20 minutes at 37° C. The cells that had not adhered to the endothelial cell monolayer were removed and the wells washed with PBS before fixing with 4% formalin in PBS for 30 min. The adhesion of cells was then quantitated using the ODYSSEY infra-red imager (Licor). Additionally adhered cells were photographed at ×20 using light microscopy (Olympus CKX41).

aortic endothelium = test: Adherence of labelled leukocytes to aortae (dynamic flow assay); parameters: species or system mouse; settings: ex vivo
Description: Adherence of Labelled Leukocytes to Aortae
After 1 week of a low sodium or normal sodium diet, apoE KO and AGER/apoE DKO animals were humanely killed and aortae were isolated, cleaned of fat and mounted in a vessel chamber primed with Krebs buffer and maintained at physiological pH by infusing carbogen gas (95% O2; 5% CO2) through the buffer at 37° C., as previously described. Whole blood labelled with DilC18 (1:1000) was then perfused through the aorta at 0.12 ml/min. As a positive control, vessels (n=6/group) were pre-treated with TNFα (4 ng/ml) for 4 hrs at 37° C. or Ang II (1 μM). Images and videos of vessel wall-cell interactions were acquired using a fluorescence microscope (Zeiss Discovery.V20), coupled to a digital camera ([…] ORCA-ER) and analysed with AxioVison software. Two to three frames were taken at each time point and the number of adherent cells per frame recorded.
Ex Vivo Studies in Isolated Aortae
Aortae were isolated from apoE KO and AGER/apoE DKO mice, divided and placed in Krebs buffer and maintained at physiological pH by infusing carbogen gas (95% O2; 5% CO2) through the buffer at 37° C. Vessels (n=6/group) were then treated with Ang II (1 μM) for 4 hours. […] Images and videos of vessel wall-cell interactions were observed using a fluorescence microscope (Zeiss Discovery.V20), coupled to a digital camera ([…] ORCA-ER) and analysed with AxioVison software.

apoE KO mice = test: Aortic plaque area quantitation (Sudan IV staining of aortic arch); type: in vivo, mouse
Excerpt: C57bl6 mice, AGER knockout (KO) mice, apoE KO mice, AGER/apoE double knockout (DKO), Ace2/apoE DKO and AGER/Ace2/apoE triple knockout (TKO) mice were sourced and generated in-house at the AMPREP animal house. All mice were bred on a C57bl6 background. For experimental studies, male mice aged 6-8 weeks and weighing between 20-25 g were used, with at least 8 animals per group for in vivo studies and n=6/group for ex vivo studies. Throughout the study animals were given access to mouse chow and water ad libitum. All experiments were approved by the animal ethics committee of the Alfred Medical Research Precinct and conducted in accordance with the Guide for the Care and Use of Laboratory Animals published by the US National Institutes of Health (NIH Publication No. 85-23, revised 1996).
Aortic Plaque Area Quantitation Method
Aortic arches were removed from mice, cleaned of excess fat, placed in 10% neutral buffered formalin and subsequently stained with Sudan IV-Herxheimer's solution (0.5% w/vol; Gurr, BDH Limited, Poole, UK). Aortae were then dissected longitudinally, and pinned flat onto a wax pad. Plaque accumulation across the aortic arch was quantitated as the percentage area stained red.
Angiotensin Infusion Model […]

[3] = Circulating concentration of RAGE ligands (S100A8/A9, AGEs, methylglyoxal); type: in vivo, mouse; settings: four-week infusion 1 μg/kg/min
Description: Circulating Concentration of RAGE Ligands
Changes in circulating levels of RAGE ligands were assessed in animal models. S100A8/A9 levels were estimated by ELISA (Immundiagnostik, Germany) performed according to the manufacturer's instructions. Plasma AGEs were measured by in-house ELISA. Plasma methylglyoxal, a reactive precursor of AGEs, was measured by HPLC.

Substance | association with IQGAP-1 (pull-down) (IQGAP-1 [1]) | pull down of IQGAP-1 (and ezrin/radixin/moesin, olfactory receptor 2T2) from cytosolic components (IQGAP-1 [2]) | adhesion of labelled THP-1 cells to PMAEC monolayer (PMAEC) | endothelial adhesiveness of primed leucocytes (aortic endothelium; aortae from AGER/apoE DKO mice, 1 μM) | number of adherent leukocytes (aortic endothelium; aortae from apoE KO mice, 1 μM vs untreated) | atherogenesis (plaque area) (apoE KO mice; AGER/apoE DKO mice, four-week infusion 1 μg/kg/min) | atherogenesis (percentage of the aortic arch surface area staining positive to Sudan IV) (apoE KO mice; apoE KO mice, four-week infusion 1 μg/kg/min vs untreated) | circulating levels of RAGE ligands ([3]; AGER/apoE DKO mice) | circulating levels of RAGE ligands (S100A8/A9, AGEs, dicarbonyl precursors) ([3]; apoE KO mice)
L362WQRRQRRGEERKAPENQEEEEERAELNQAEEPEAGESSTGGP404 (LWQRRQRRGEERKAPENQEEEEERAELNQAEEPEAGESSTGGP; listed as Homo sapiens) [S391A-RAGE362-404, S391A mutant RAGE cytosolic tail; non-functional substitute for RAGE] | preferentially associates with IQGAP-1 | Pull down |  |  |  |  |  |  | 
angiotensin II (DRVYIHPF) [Ang II, cognate ligand of AT1R] |  |  | increased adhesion | prevents | increased number of adherent leukocytes | prevents the increase in atherogenesis | increases atherogenesis | preventing | increases
